Laboratory results: patent US10294202B2, “Pyrrolidinones as herbicides” (FMC Corporation, priority 2013, dated 2019)

Experiments:
foxtail, giant = experiment: Test C pre-/postemergence herbicide test; format: in vivo, Setaria faberii; details: Preemergence; for Plant response rating (scale of 0 to 100), Foxtail, Giant: 250 g ai/ha
Excerpt: (§1) Seeds of plant species selected from blackgrass (Alopecurus myosuroides), ryegrass, Italian (Italian ryegrass, Lolium multiflorum), wheat (winter wheat, Triticum aestivum), galium (catchweed bedstraw, Galium aparine), corn (Zea mays), crabgrass, large (large crabgrass, Digitaria sanguinalis), foxtail, giant (giant foxtail, Setaria faberii), johnsongrass (Sorghum halepense), lambsquarters (Chenopodium album), morningglory (Ipomoea coccinea), nutsedge, yellow (yellow nutsedge, Cyperus esculentus), pigweed (Amaranthus retroflexus), ragweed (common ragweed, Ambrosia elatior), soybean (Glycine max), barnyardgrass (Echinochloa crus-galli), oilseed rape (Brassica napus), waterhemp (common waterhemp, Amaranthus rudis), kochia (Kochia scoparia), oat, wild (wild oat, Avena fatua), surinam grass (Brachiaria decumbens), foxtail, green (green foxtail, Setaria viridis), goosegrass (Eleusine indica), bromegrass, downy (downy bromegrass, Bromus tectorum), nightshade (eastern black nightshade, Solanum ptycanthum), cocklebur (common cocklebur, Xanthium strumarium), cupgrass, woolly (woolly cupgrass, Eriochloa villosa), bermudagrass (Cynodon dactylon), sunflower, (common oilseed sunflower, Helianthus annuus), Russian thistle (Salsola kali) and velvetleaf (Abutilon theophrasti) were planted into a blend of loam soil and sand and treated preemergence with test chemicals formulated in a non-phytotoxic solvent mixture which included a surfactant. At the same time, plants selected from these crop and weed species and also barley (winter barley, Hordeum vulgare), […]), chickweed (common chickweed, Stellaria media), deadnettle (henbit deadnettle, Lamium amplexicaule), and canarygrass (littleseed canarygrass, Phalaris minor) were planted in pots containing Redi-Earth® planting medium (Scotts Company, 14111 Scottslawn Road, Marysville, Ohio 43041) comprising spaghnum peat moss, vermiculite, wetting agent and starter nutrients and treated with postemergence applications of test chemicals formulated in the same manner. Plants ranged in height from 2 to 18 cm (1- to 4-leaf stage) for postemergence treatments. Treated plants and controls were maintained in a greenhouse for 13 to 15 days, after which time all species were compared to controls and visually evaluated. Plant response ratings, summarized in Table C, are based on a scale of 0 to 100 where 0 is no effect and 100 is complete control. A dash (-) response means no test result.

morningglory = experiment: Test C pre-/postemergence herbicide test; format: in vivo, Ipomoea coccinea; details: Preemergence; for Plant response rating (scale of 0 to 100), Morningglory: 250 g ai/ha
Excerpt: as §1

pigweed = experiment: Test A pre-/postemergence herbicide test; format: in vivo, Amaranthus retroflexus
Outline: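 Visual injury ratings, 0 = no effect, 100 = complete control, taken ~10 days after treatment against untreated greenhouse controls. Preemergence: directed soil spray onto seeded loam/sand pots. Postemergence: spray onto plants at one- to two-leaf stage, 2–10 cm tall.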

galium = experiment: Test C pre-/postemergence herbicide test; format: in vivo, Galium aparine; details: Preemergence; for Plant response rating (scale of 0 to 100), Galium: 250 g ai/ha
Excerpt: as §1

blackgrass = experiment: Test A postemergence herbicide test; format: in vivo, Alopecurus myosuroides
Outline: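 Visual injury rating, 0 (no effect) to 100 (complete control), versus untreated controls ~10 days after treatment. Postemergence spray applied at one- to two-leaf stage, plants 2–10 cm tall, potted in loam soil/sand. Greenhouse-held.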

[1] = 31 g ai/ha, scale 0 to 100, 0 is no effect and 100 is complete control
[2] = 125 g ai/ha, scale 0 to 100 (0 no effect, 100 complete control)
[3] = Postemergence, 500 g ai/ha, 0 to 100 scale (0 no effect, 100 complete control)
[4] = 62 g ai/ha, scale 0 to 100 (0 no effect, 100 complete control)
[5] = Postemergence, 125 g ai/ha, 0 to 100 scale, 0 is no effect, 100 is complete control
[6] = Preemergence, 125 g ai/ha, 0 to 100 scale where 0 is no effect and 100 is complete control
[7] = preemergence, 500 g ai/ha, 0 to 100 scale, 0 is no effect and 100 is complete control
[8] = Postemergence, 125 g ai/ha, visual rating on 0 to 100 scale (0 no effect, 100 complete control), approx. 10 days

Row | Compound | Foxtail, Giant plant response rating (foxtail, giant; [1]) | Plant response rating, Foxtail, Giant (foxtail, giant; [2]) | Plant response rating (scale of 0 to 100), Foxtail, Giant (foxtail, giant) | Morningglory plant response rating (morningglory; [1]) | Plant response rating, Morningglory (morningglory; [2]) | Plant response rating (scale of 0 to 100), Morningglory (morningglory) | Plant response rating, Pigweed (pigweed; [3]) | Galium plant response rating (galium; [1]) | Plant response rating, Galium (galium; [2]) | Plant response rating (scale of 0 to 100), Galium (galium) | Foxtail, Giant plant response rating (foxtail, giant; [4]) | Morningglory plant response rating (morningglory; [4]) | Plant response rating, Pigweed (pigweed; [5]) | Plant response rating, Pigweed (pigweed; [6]) | Plant response rating, Pigweed (pigweed; [7]) | Galium plant response rating (galium; [4]) | further results
1 | O=C1NCC(c2ccc(F)c(C(F)(F)F)c2)C1C(=O)Nc1ccccc1C(F)(F)F (racemic) [Compound 78] | 85 | 95 | 98 | 0 | 0 | 0 | 50 | 50 | 60 | 85 |  |  |  |  |  |  | Plant response rating, Foxtail, Giant (foxtail, giant; 62 g ai/ha, scale 0 to 100): 95; Plant response rating, Morningglory (morningglory; 62 g ai/ha, scale 0 to 100): 0; Plant response rating, Pigweed (pigweed; Postemergence, 125 g ai/ha, 0 to 100 scale, 0 no effect, 100 complete control): 50; Pigweed plant response rating (pigweed; Preemergence, 125 g ai/ha, visual rating on 0 to 100 scale (0 no effect, 100 complete control)): 10; Plant response rating, Pigweed (pigweed; preemergence, 500 g ai/ha, 0 to 100 scale): 60; Plant response rating, Galium (galium; 62 g ai/ha, scale 0 to 100): 50
2 | O=C1NCC(c2ccc(C(F)(F)F)c(F)c2)C1C(=O)Nc1ccccc1F (racemic) [Compound 246] | 85 | 95 | 95 | 5 | 10 | 5 | 0 | 10 | 90 | 90 | 90 | 5 | 0 | 0 | 0 | 90 | 
3 | O=C1NCC(c2ccc(C(F)(F)F)nc2)C1C(=O)Nc1ccccc1F (racemic) [Compound 262] | 20 | 95 | 95 | 0 | 10 | 10 | 0 | 0 | 60 | 85 | 70 | 0 | 0 | 50 | 70 | 40 | 
4 | O=C1NCC(c2ccc(C(F)(F)F)cc2)C1C(=O)Nc1ccccc1Cl (stereo not shown) [Compound 233] | 85 | 90 | 95 | 0 | 20 | 20 |  | 0 | 90 | 90 | 90 | 0 | 0 |  | 30 | 80 | Plant response rating, Blackgrass (blackgrass; 125 g ai/ha, 0 to 100 scale, 0 is no effect, 100 is complete control): 60; Blackgrass plant response rating (0 to 100 scale, 0 is no effect, 100 is complete control) (blackgrass; 500 g ai/ha): 60; Plant response rating, Pigweed (pigweed; 125 g ai/ha, visual rating, 0 to 100 scale, 0 no effect, 100 complete control, approximately 10 days, preemergence): 30; Pigweed plant response rating (0 to 100 scale, 0 is no effect, 100 is complete control) (pigweed; Postemergence, 500 g ai/ha): 20
5 | O=C1NCC(c2cccc(C(F)(F)F)c2)C1C(=O)Nc1cccc(F)c1F (stereo not shown) [Compound 241] | 90 | 95 | 95 | 0 | 10 | 30 | 20 | 20 | 85 | 85 | 95 | 0 | 0 | 0 | 30 | 80 | 
6 | O=C(Nc1ccccc1F)C1C(=S)NCC1c1cccc(C(F)(F)F)c1 (stereo not shown) [Compound 274] | 80 | 90 | 95 | 0 | 0 | 0 |  | 0 | 80 |  | 85 | 0 |  |  |  | 0 | Plant response rating, Blackgrass (blackgrass; 1000 g ai/ha, 0 to 100 scale (0 no effect, 100 complete control)): 50; Plant response rating, Pigweed (pigweed; [8]): 0; Plant response rating, Pigweed (pigweed; Postemergence, 1000 g ai/ha, 0 to 100 scale (0 no effect, 100 complete control)): 20; Plant response rating, Pigweed (pigweed; preemergence, 1000 g ai/ha, 0 to 100 scale): 0
7 | O=C1NCC(c2cccc(Br)c2)C1C(=O)Nc1ccccc1F (stereo not shown) [Compound 307] | 65 |  | 95 | 0 |  | 0 | 0 | 0 |  | 85 | 85 | 0 |  | 0 |  | 0 | Plant response rating, Foxtail, Giant (foxtail, giant; 125 g ai/ha, scale 0 to 100): 85; Plant response rating, Morningglory (morningglory; 125 g ai/ha, scale 0 to 100): 0; Plant response rating, Blackgrass (blackgrass; 125 g ai/ha, visual rating on 0 to 100 scale (0 no effect, 100 complete control), approx. 10 days): 30; Plant response rating, Blackgrass (blackgrass; 500 g ai/ha, 0 to 100 scale (0 no effect, 100 complete control)): 70; Plant response rating, Pigweed (pigweed; [8]): 0; Pigweed plant response rating (pigweed; Preemergence, 500 g ai/ha, visual rating on 0 to 100 scale (0 no effect, 100 complete control)): 0; Plant response rating, Galium (galium; 125 g ai/ha, scale 0 to 100): 100
